Results reported in paper PMC11809919, “Quinoxaline-based anti-schistosomal compounds have potent anti-plasmodial activity” (PLOS Pathogens, 2025).
Several values for one entry are separate records, joined by “and”; a condition that tells them apart may be missing. Equal entries are not always repeated. Where two headings read alike, the source gives them in different places.

Legend:
[1] = test system: P. falciparum PfQRP1 mutants (G1612V, D1863Y, D1829*, D1829A); assay: Dose-response assay on CRISPR-edited PfQRP1 mutant lines; type: cell-based, Plasmodium falciparum
Procedure: To generate the PfQRP1 hydrolase mutants (D1829stop and D1829A), the pDC2-Cas9-gRNA-donor plasmid was transfected into the P. falciparum Dd2 line. Donor plasmid (50 µg) containing the sgRNA ([…]) and a pfqrp1 homology region of 672 bp, centred on the D1829 residue, was used for transfection. Transfectants were selected using 5 nM WR99210 (a potent inhibitor of P. falciparum dihydrofolate reductase (DHFR) provided by Jacobus Pharmaceuticals) for 8 days, followed by culturing without drug until parasites were observed. Parasite clones were obtained using limiting dilution cloning. Confirmation of gene editing was performed with allele-specific PCR (forward primer […] and reverse primer […]) and Sanger sequencing using an internal primer ([…]).
(§1) Compound dose-response assays were performed in flat-bottom 96-well plates. Tightly synchronized ring-stage parasites were diluted to 1% parasitemia at 2% hematocrit, and incubated with a two-fold serial dilution of compounds in complete medium. Untreated parasites or uninfected RBCs were included in the assay plate as controls. Parasite growth was assessed after 72 h by lysing parasites using 2× lysis buffer consisting of 10 mM Tris-HCl, 5 mM EDTA, 0.1% w/v saponin, and 1% v/v Triton X-100, supplemented with 2× SYBR Green I (Molecular Probes). The fluorescence was measured using a FluorStar Omega v5.11 plate reader. IC50 analysis was performed using GraphPad Prism v9, and statistical significance was determined by a two-sided Mann-Whitney U test. All assays were performed in technical duplicate with at least three biological replicates, as noted in the figure legends.

[2] = test system: β-hematin formation; assay: Detergent-based β-hematin inhibition assay; type: biochemical; conditions: cell-free, NP40 detergent, pH 4.8
Procedure: From this stock 40 μL of each was delivered to wells in the final column (column 12) of a 96-well plate together with distilled water (120 μL) and NP40 detergent (305.5 mM, 40 μL). […] A serial dilution of each compound (100 μL) from column 12 to column 2 was carried out. Column 1 served as a blank with 0 mM sample. A 25 mM hematin stock solution was prepared by sonicating hemin in DMSO for one minute and then suspending 179 μL of this in a 1 M acetate buffer (20 mL, pH 4.8). […] The plate was covered and incubated at 37°C for 5 h. […] Acetone (60 μL) was then added to assist with hematin dispersion. The UV-vis absorbance of the plate wells was read on a SpectraMax […] plate reader.

[3] = test system: 3D7 parasites (hemoglobin, 'free' heme, hemozoin); assay: Cellular heme fractionation assay; type: cell-based, Plasmodium falciparum; conditions: 3D7, 0.5 – 2.5× IC50, 30 h
From the text: Cellular heme fractionation to measure the amounts of different heme species was thereafter conducted as previously described. […] Pellets were then resuspended in 1× PBS (pH 7.5) and an aliquot of the trophozoite suspension used to quantify the total number of trophozoites isolated using flow cytometry. Contents of the remaining trophozoite pellet were then released by hypotonic lysis and sonication. […] The UV−visible spectrum of each heme fraction as an Fe(III)heme−pyridine complex was measured using a multi-well plate reader (Spectramax 340PC; Molecular Devices). The total amount of each heme species was quantified using a heme standard curve whereby the mass of each heme-Fe species per trophozoite (fg/cell) was calculated by dividing the total amount of each heme species by the corresponding number of parasites in that fraction as determined by flow cytometry. Statistical comparisons and analyses for trends were made on GraphPad Prism version 10 using Students’ t-test with Welch correction. The total amount of heme obtained from each fraction was quantified using a standard curve prepared from a 100 μg/mL heme standard solution of hematin (porcine) in 0.3 M NaOH. Serial dilutions of this standard were carried out in a 96-well plate with 100 μL 0.3 M NaOH as a blank. […] The visible spectra of heme as Fe(III)heme-pyridine complex were recorded in a multi-well plate reader. The amount of heme Fe per cell was calculated by dividing the total heme Fe in each fraction by the number of cells determined in each fraction.

[4] = test system: Dd2-Polδ clones C22-1.1 and C22-2.1; assay: Dose-response assay on compound 22-selected clones (cross-resistance); type: cell-based, Plasmodium falciparum
Procedure: Resistance selections were performed using a mutator parasite line Dd2-Polδ with an elevated mutation rate. Three independent flasks with either 1×10^8 or 1×10^9 parasites each were treated with 5×IC50, and parasite death was monitored by microscopy (Giemsa staining). […] After eight days, compounds were removed from the media and the media was changed on alternate days. […] For recrudescent cultures, compound susceptibility was determined by dose-response assays. Parasite clones were obtained by limiting dilution and harvested for genomic DNA extraction, followed by whole-genome sequencing.
as §1

[5] = test system: P. falciparum 3D7; assay: Compound dose-response assay (72 h, SYBR Green I), 3D7; type: cell-based, Plasmodium falciparum; conditions: for Change of anti-plasmodial activity relative to compound 22: 3D7 and Dd2; for Selectivity index HepG2/3D7: HepG2 72 h CC50 / Pf 3D7 IC50; for IC50: 72 h, asexual blood stage
Procedure: (§2) P. falciparum parasites were cultured at 3% hematocrit in RPMI 1640 (Gibco) medium consisting of 0.5% Albumax II (Gibco), 25 mM HEPES (Sigma), 0.21% sodium bicarbonate, 1x GlutaMAX (Gibco), 25 μg/mL gentamicin (Gibco). A tri-gas mixture (1% O2, 3% CO2, and 96% N2) was used for parasite cultures. Parasites were synchronized using a sorbitol and Percoll density gradient method. The following parasite strains were used: 3D7, Dd2 (MR4, MRA-156, T. Wellems), GB4 (MR4, MRA-925, T. Wellems), UG659 (P. Rosenthal), Tanzania (MR4, MRA-1169, Michal Fried), Cam/PH0212C (R. Fairhurst), and Cam3.II/ PH0306-C (R. Fairhurst). Transfection was performed using ring-stage parasites (5–8% parasitemia) using a Gene Pulser Xcell (Biorad) electroporator.
as §1

[6] = test system: P. falciparum Dd2; assay: Compound dose-response assay (72 h, SYBR Green I), Dd2; type: cell-based, Plasmodium falciparum; conditions: for Selectivity index HepG2/Dd2: HepG2 72 h CC50 / Pf Dd2 IC50; for IC50: Plasmodium falciparum, DD2, 72 h, 72 h, asexual blood stage
Procedure: as §2, §1

[7] = test system: S. mansoni schistosomula; set-up: method as in Padalino et al. [13]; conditions: ref Padalino et al. [13], cited from earlier work
[8] = test system: HepG2 cells; set-up: method as in Padalino et al. [13]; conditions: ref Padalino et al. [13], cited from earlier work
[9] = read-out: βH Inhibition IC50, individual biological replicate
[10] = Plasmodium falciparum, 3D7, 72 h
[11] = 72 h, read-out: 72 h -phenotype EC50
[12] = average of phenotype and motility, read-out: Average EC50
[13] = HepG2, 24 h, read-out: 24 h CC50
[14] = HepG2, 72 h, read-out: 72 h CC50

Compound | Effect of D1829 stop / D1829A PfQRP1 mutation on IC50 [1] | IC50 [2, 9] | Levels of 'free' heme or hemozoin relative to untreated controls [3] | Shift in IC50 in compound 22-selected clones versus parental Dd2-Polδ [4] | IC50 ([2]; mean of two biological replicates, listed as chloroquine, read-out: βH Inhibition IC50, mean) [nM] | IC50 ([2]; mean of two biological replicates, read-out: βH Inhibition IC50, mean) [nM] | Change of anti-plasmodial activity relative to compound 22 [5] | Selectivity index HepG2/3D7 [5] | IC50 [5, 10] [nM] | Selectivity index HepG2/Dd2 [6] | IC50 [6] [nM] | EC50 [7, 11] [nM] | EC50 [7, 12] [nM] | EC50 ([7]; read-out: Motility EC50) [nM] | CC50 [8, 13] [nM] | CC50 [8, 14] [nM] | IC50 [5] [nM] | Loss in potency ([5]; relative to compound 22)
2-N,3-N-bis[3-(trifluoromethyl)phenyl]quinoxaline-2,3-diamine [MMV665794] | less potent | 257000 nM and 217000 nM | no significant changes |  |  |  |  |  |  |  |  |  |  |  |  |  |  | 
CNC(=O)CNc1cnc2ccc(-c3ccc(OC)c(OC)c3)cc2n1 [BQR695, 2-[[7-(3,4-dimethoxyphenyl)quinoxalin-2-yl]amino]-N-methylacetamide, reference compound] |  |  |  | no cross resistance |  |  |  |  |  |  |  |  |  |  |  |  |  | 
CCN(CC)CCCC(C)Nc1ccnc2cc(Cl)ccc12 (stereo not shown) [Chloroquine, chloroquine] |  | 16700 nM and 14500 nM | significant concentration-dependent increases |  | 16000 | 15600 |  |  |  |  |  |  |  |  |  |  |  | 
CC(=O)Nc1ccc2nc(Nc3ccc(Cl)c(Cl)c3)c(Nc3ccc(Cl)c(Cl)c3)nc2c1 [Compound 22c] |  |  |  |  |  |  | greatly diminished activity | 58.1 | 79 | 25.4 | 181 | 3040 | 2910 | 2790 | 8600 | 4590 |  | 
O=C(Nc1ccc2nc(Nc3ccc(Cl)c(Cl)c3)c(Nc3ccc(Cl)c(Cl)c3)nc2c1)c1ccco1 [Compound 22f] |  |  |  |  |  |  | greatly diminished activity | 19.8 | 287 ± 3.3 | 14.9 | 382 | 1910 | 1950 | 2000 | 14800 | 5690 | 287 | 
O=[N+]([O-])c1ccc2nc(Nc3cccc(Cl)c3)c(Nc3cccc(Cl)c3)nc2c1 [Compound 25] |  |  |  |  |  |  |  | 10.1 | 57.7 | 9.2 | 63.4 | 1220 | 1260 | 1300 | 6760 | 580 |  | 
O=[N+]([O-])c1ccc2nc(Nc3ccc(Cl)cc3)c(Nc3ccc(Cl)cc3)nc2c1 [Compound 26] |  |  |  |  |  |  |  | 4.3 | 29.9 | 3.5 | 36.8 | 420 | 410 | 390 | 13000 | 130 |  | 
O=[N+]([O-])c1ccc2nc(Nc3cccc(C(F)(F)F)c3)c(Nc3cccc(C(F)(F)F)c3)nc2c1 [Compound 30] |  |  |  | modest shift with one of the compound 22-resistant clones |  |  |  | 67.2 | 13.4 | 40.9 | 22 | 340 | 380 | 430 | 5850 | 900 |  | 
O=[N+]([O-])c1ccc2nc(Nc3ccc(F)c(C(F)(F)F)c3)c(Nc3ccc(F)c(C(F)(F)F)c3)nc2c1 [Compound 32] |  |  |  | modest shift with one of the compound 22-resistant clones |  |  |  | 40.4 | 16.6 | 24.1 | 27.8 | 890 | 720 | 540 | 7750 | 670 |  | 
COc1ccc(Nc2nc3ccc([N+](=O)[O-])cc3nc2Nc2ccc(OC)c(C(F)(F)F)c2)cc1C(F)(F)F [Compound 35] |  |  |  | modest shift with one of the compound 22-resistant clones |  |  |  | 7.4 | 57.8 | 3.8 | 112 | 630 | 660 | 690 | 5640 | 430 |  | 
O=[N+]([O-])c1ccc2nc(NCCc3ccccc3)c(NCCc3ccccc3)nc2c1 [Compound 37] |  |  |  |  |  |  |  | 20.5 | 220 | 17.1 | 264 | 2200 | 1840 | 1470 | 4400 | 4520 |  | ten-fold
C[C@H]1Cc2c([nH]c3cc(Cl)c(F)cc23)[C@@]2(N1)C(=O)Nc1ccc(Cl)cc12 [KAE609] |  | > 500000 nM |  |  |  |  |  |  |  |  |  |  |  |  |  |  |  | 
